Tests used:
HDAC1 [1] = target: T1, HDAC1 (Homo sapiens, UniProt Q13547); assay: HDAC1 immunoprecipitation & activity assay on treated HCT-116 cells; format: cell-based; conditions: HCT-116 cells treated at 10 µM for 12 h; in comparison with SAHA
T1 construct: endogenous in cells; host or cells: HCT-116
Description: HDAC assay: To test the inhibition activity of compounds, the HDAC1 immunoprecipitation (IP) & Activity Assay Kit (Catalog # K342-25; Biovision) was used under the protocol provided by the kit. HCT-116 cell lines were plated in 6 wells and treated with the investigated compounds at 10 µM for 12 h. After incubation, the media was removed, and the cells were washed with PBS (EuroClone) solution (2X). Then, 200 µl/well of lysis buffer with protease inhibitor was added and the cells were scraped and incubated in ice for 30 min. After centrifugation at 10,000 g for 10 min at 4 °C, the supernatant was collected. One hundred micrograms of each extract was incubated with 6 µl of Rabbit HDAC1 antibody and Rabbit IgG and the volume was reached to 500 µl with PBS with protease inhibitors. After incubation at 4 °C overnight a rotary mixer, 25 µl of the protein-A/G bead slurry, previously washed with PBS (2X), was added to the samples and incubated for 1 h at 4 °C. The beads were recovered after 3 washes with 1 ml PBS, by centrifuging at 14,000 g for ~ 10 s and used for HDAC assay.
HDAC assay preparation: For each reaction, 168 µl reaction mix containing HDAC assay buffer and HDAC substrate was prepared, added to the sample and to background control tube, and incubated at 37 °C for 2 h. SAHA was used as a positive control. […] The fluorescence was read at Ex/Em = 380/500 nm with Tecan M1000 plate reader.

SNI mice [2] = assay: Hargreaves' plantar test, thermal allodynia in SNI mice; format: in vivo
Description: Mice were randomly assigned to each treatment group.
(§2) For i.n. administration, mice were slightly anesthetized by 2% isoflurane inhalation and placed in a supine position [30]. A 5 μl aliquot of solution (treatments or vehicle) was slowly dropped alternatively to each nostril with a micropipette tip.
Behavioral testing was performed before surgery to establish a baseline for comparison with post-surgical values.
(§3) Animals were habituated to the testing environment daily for at least 2 days before baseline testing. To evaluate onset and progression of pain hypersensitivity, neuropathic mice were monitored by measuring nociceptive responses every 30 min for 3 h before surgery or 3, 7, 10, and 14 days after nerve surgery. Experiments were performed on post-surgery day 7 and 14 when the pain hypersensitivity was well established. Each mouse served as its own control, the responses being measured both before and after surgery. All testing was performed with a blind procedure.
Thermal nociceptive threshold was measured using Hargreaves’ device, as described [33]. Nociceptive response for thermal sensitivity was expressed as thermal paw withdrawal latency in seconds. All determinations were averaged for each animal.

SNI mice [3] = assay: Mechanical allodynia (Dynamic Plantar Aesthesiometer) in SNI mice; format: in vivo
Description: Mice were randomly assigned to each treatment group. […] Maria Novella Romanelli, iBET762 (molibresib; (4S)-6-(4-Chlorophenyl)-N-ethyl-8-methoxy-1-methyl-4H-[1,2,4]triazolo[4,3,a][1,4] benzodiazepine-4-acetamide, and SAHA (vorinostat; suberoylanilide hydroxamic acid) (Sigma-Aldrich, Italy) were administered 15 min before the tests. Drugs were dissolved in 5% DMSO. Drug concentrations were prepared in such a way that the necessary dose could be administered in a volume of 10 µl per mouse by intranasal (i.n.) administration. The experimental protocol to test the effect of treatments on behavioral and in vitro tests included 3 control groups: untreated, vehicle (5% DMSO), and saline.
as §2
Behavioral testing was performed before surgery to establish a baseline for comparison with post-surgical values. Mono-neuropathy was induced by spared nerve injury and this model of pain in mice has been in use for several years [31]. The SNI procedure was performed as previously described [31].
as §3
Mechanical allodynia was measured by using Dynamic Plantar Aesthesiometer (Ugo Basile, Bologna, Italy), as described [32]. Nociceptive response for mechanical sensitivity was expressed as mechanical paw withdrawal threshold (PWT) in grams. PWT was quantified by an observer blinded to the treatment.

SNI mice [4] = assay: Rotarod test; format: in vivo; conditions: 50 µM i.n., vs vehicle-treated SNI mice
Description: The possible alteration of motor performance induced by each treatment was assessed by rotarod test, as previously described. The integrity of motor coordination was assessed as number of falls from the rod in 30 s.

SNI mice [5] = assay: Hole-board test; format: in vivo; conditions: 50 µM i.n., vs vehicle-treated SNI mice
Description: The spontaneous locomotor behavior was evaluated by using the hole-board test. Movements of the animal on the plane represent the spontaneous mobility, and the head-dips in the holes by the mice represent the exploratory activity.

SNI mice [6] = assay: Observation of sedation or motor dysfunction; format: in vivo; conditions: single administration 50 µM i.n.
BRD4 = assay: Western blot of lumbar spinal cord, BRD4; format: in vivo, mice; conditions: SNI ipsilateral side, day 7 and 14 post-surgery, i.n.
Description: (§1) The lumbar spinal cord was removed 7 and 14 days after surgery and 90 min after the intranasal administration of SUM52, corresponding to the peack of the effect. Samples (n = 4 for groups) were homogenized in a homogenization buffer and processed as previously described. Protein samples (40 µg of protein/sample) were separated on 10% SDS-PAGE and transferred onto nitrocellulose membranes (120 min at 100 V) using standard procedures. Membranes were blocked in PBST (PBS containing 0.1% Tween) containing 5% nonfat dry milk for 120 min. […] Blots were then extensively washed and developed using enhanced chemiluminescence detection system (Pierce, Milan, Italy) and signal intensity (pixels/mm^2) quantified (ImageJ, NIH). […] For each sample, the signal intensity was normalized to that of total protein stained by Ponceau S and the acquired images were quantified using Image Lab software. […]

HDAC1 [7] = assay: Western blot of lumbar spinal cord, HDAC1; format: in vivo, mice; conditions: SNI ipsilateral side, day 7 and 14 post-surgery, i.n.
Description: as §1

IL-6 = assay: Western blot of lumbar spinal cord, IL-6; format: in vivo, mice; conditions: SNI ipsilateral side, day 7 and 14
Description: as §1

[8] = contralateral (uninjured) side of SNI mice
[9] = time-course comparison, combination i-BET762 10 µg, SAHA 3 µg

T1 sequence (Q13547 whole entry): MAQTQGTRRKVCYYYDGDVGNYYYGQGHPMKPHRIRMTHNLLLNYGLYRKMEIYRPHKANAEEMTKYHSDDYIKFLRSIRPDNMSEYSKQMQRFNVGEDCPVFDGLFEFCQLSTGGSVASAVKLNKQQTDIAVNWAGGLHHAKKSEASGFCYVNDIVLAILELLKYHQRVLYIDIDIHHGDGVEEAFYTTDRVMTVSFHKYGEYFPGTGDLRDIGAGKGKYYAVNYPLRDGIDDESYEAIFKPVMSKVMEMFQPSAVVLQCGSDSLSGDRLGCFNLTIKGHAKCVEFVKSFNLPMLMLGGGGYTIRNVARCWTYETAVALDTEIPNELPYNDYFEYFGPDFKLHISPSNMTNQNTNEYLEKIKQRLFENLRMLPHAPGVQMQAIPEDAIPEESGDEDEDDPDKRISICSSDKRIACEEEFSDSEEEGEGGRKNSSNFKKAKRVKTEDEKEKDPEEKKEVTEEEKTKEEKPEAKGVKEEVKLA

Cc1nnc2n1-c1ccccc1C(c1ccccc1)=N[C@H]2CC(=O)NCCCCCCC(=O)NO [SUM52, (S)-N-hydroxy-7-(2-(1-methyl-6-phenyl-4H-benzo[f][1,2,4]triazolo[4,3-a][1,4]diazepin-4-yl)acetamido)heptanamide]
inhibition of HDAC1 enzymatic activity (HDAC1 [1]): Partial inhibition
thermal antiallodynic activity, ipsilateral side (SNI mice [2]; 10 µM i.n., 90 min): ineffective
thermal antiallodynic activity, ipsilateral side (SNI mice [2]; 50 µM i.n., vs before treatment values): attenuated the SNI-induced pain hypersensitivity
thermal antiallodynic activity, ipsilateral side (SNI mice [2]; 75 µM i.n., vs before treatment values): attenuated the SNI-induced pain hypersensitivity
thermal antiallodynic activity, ipsilateral side (SNI mice [2]; 100 µM i.n.): the effect was significantly reduced
duration of effect on thermal allodynia compared with SUM35 (SNI mice [2]; SUM52 50 µM vs SUM35 100 µM): more prolonged affect
efficacy in attenuating thermal allodynia compared with SUM35 (SNI mice [2]; SUM52 50 µM vs SUM35 100 µM, normalized to control group, day 7 and 14): comparable efficacy
thermal analgesic effect in the contralateral side (SNI mice [2]; [8]): absence
thermal antiallodynic efficacy compared with SAHA + iBET762 combination (SNI mice [2]; [9]): comparable efficacy
mechanical antiallodynic activity, ipsilateral side (SNI mice [3]; 10–100 µM i.n.): attenuated SNI-induced mechanical allodynia
duration of activity in attenuating mechanical allodynia compared with SUM35 (SNI mice [3]; SUM52 50 µM vs SUM35 100 µM): more prolonged activity
efficacy in attenuating mechanical allodynia compared with SUM35 (SNI mice [3]; SUM52 50 µM vs SUM35 100 µM, day 7 and 14 post-surgery): higher efficacy
mechanical analgesic effect in the contralateral side (SNI mice [3]; [8]): absence
mechanical antiallodynic efficacy compared with SAHA + iBET762 combination (SNI mice [3]; [9]): comparable efficacy
motor coordination (rotarod test) (SNI mice [4]): no alteration
exploratory activity (hole board test) (SNI mice [5]): no alteration
spontaneous mobility (hole board test) (SNI mice [5]): no alteration
apparent sedation or motor dysfunction (SNI mice [6]): No animal showed apparent sedation or motor dysfunction
spinal BRD4 protein expression (BRD4): restored both epigenetic enzyme levels to control values
spinal HDAC1 protein expression (HDAC1 [7]): restored both epigenetic enzyme levels to control values
IL-6 expression (IL-6): drastically reduced
